# Values of other authors in patent US20160000088A1, “PROCESS FOR PRODUCING SILVER-ION ANTIBACTERIAL LIQUID, SILVER-ION ANTIBACTERIAL LIQUID PRODUCED BY SAID PROCESS, AND SILVER-ION-CONTAINING PRODUCT CONTAINING SAID ANTIBACTERIAL LIQUID” (TAIKI CORP., LTD., priority 2013, published 2016).
# Tested on: Staphylococcus aureus
# Conditions: silver ion concentration of 10 ppb; nutrient broth added (NB culture)
substance,measurement,value
silver ions,decrease of bacterial count,≥ 2 logs
